Each structure is given as a SMILES string.

Consider 29 compounds from patent publication US20230219890A1, “BICYCLIC COMPOUNDS AND USE THEREOF” (Betta Pharmaceuticals Co.,Ltd, priority 2020, published 2023).

One experiment concerns VEGFA (786-O cells). Nature of the experiment: VEGFA ELISA Assay (IC50). Conditions: VEGFA in culture supernatant by ELISA. It is filed as cell-based. Here is the method:
786-O cells in exponential growth phase were seeded in 96-well plate, the cell concentration was 65,000 cells per milliliter of culture medium, 180 ul per well. Compounds were serial diluted to the indicated concentration, and 20 ul compound solutions of different concentrations were added to the corresponding cell wells. The final compound concentrations were as follows (nM): 1.5, 4.6, 13.7, 41.2, 123.5, 370.4, 1111.1, 3333.3, 10000. After 24 hours of incubation, the cell culture supernatant was taken, and the VEGFA concentration was determined using an ELISA kit (purchased from abcam). Finally, the reaction was terminated, and the light absorbance value of each well was measured using a microplate reader at a wavelength of […], and IC50 was calculated by GraphPad Prism. Cell Titer-Glo reagent was used to measure cell viability.

Experiment [1] deals with HIF2α reporter cells (786-O-HIF2α-Luc cells). Nature of the experiment: Luciferase Assay (HIF2α reporter cells). It is filed as cell-based. Conditions: 18-20 h, Steady-Glo luminescence. Here is the method: Luciferase LUC gene was transfected into 786-O cells (purchased from ATCC) using Lipofectamine 3000 Transfection Reagent (purchased from Invitrogen) to construct HIF2α reporter cells (786-O-HIF2α-Luc cells). Experiments were performed when 786-O-HIF2α-Luc cells were in logarithmic growth phase, culture medium (RPMI MEDIUM 1640, purchased from Invitrogen) was abandoned, the cells were rinsed with PBS three times; trypsin (TrypLE, purchased from invitrogen) was added to digest cells, the digestion was terminated by washing the cells with culture medium, 10% fetal bovine serum, 1% penicillin and streptomycin. The cells were collected by centrifugation, rinsed twice with PBS to remove the phenol red in the medium, and then resuspended the cells to an appropriate concentration, and detected the cell density and viability, and made sure the cell viability is above 90% before it can be used for experiments.
The gradient concentration compound was transferred into 384-well plate, 25 nl/well using Echo 550 (non-contact sonic pipetting system, purchased from Labcyte); the cells were seeded in 384-well plate, 4500 cells/well, with 25 μl of culture medium, to make the final concentrations as follows: 10000, 3333, 1111, 370, 123, 41.1, 13.7, 4.6, 1.5, 0.5 nM. Cells were incubated at 37° C., 5% CO2 for 18-20 h; Steady-Glo™ Luciferase Assay System (purchased from Promega) was added to 384 well-plate, 25 μl/well; the luminescence value was detected with Envision. The % inhibition rate was calculated according to the RLU (Record Luminescence) signal value of each well, and then the IC50 of the corresponding compound was calculated by Graphpad 8.0.

The mark [2] stands for this setting: Homo sapiens, 786-0, 24 h, 24 hours incubation, numeric values.
Where [3] appears, read: Homo sapiens, 786-0, 24 h, 24 hours incubation, class symbols.

As for `O[C@H]1c2c(C(F)(F)F)cn(-c3ccc(F)c(C(F)F)c3)c2CC[C@H]1F` (single isomer, unassigned) [Example 104], the IC50 turned out to be 6.2 nM in the experiment with VEGFA (786-O cells) (setting [2]) and 22 nM in experiment [1] (numeric values).

As to `N#Cc1cc(-n2cc(C(F)(F)F)c3c2CCC(F)(F)[C@H]3F)ccc1F` (single isomer, unassigned) [Example 196], the concentration for half-maximal inhibition (IC50) (in the experiment with VEGFA (786-O cells) (setting [3]); in experiment [1] (class symbols)) was at most 500 nM in each case.

As for `OC1c2c(C(F)(F)F)cn(-c3cc(F)cc(Cl)c3)c2CCC1(F)F` (stereo not drawn) [Example 7, 1-(3-chloro-5-fluorophenyl)-5,5-difluoro-3-(trifluoromethyl)-4,5,6,7-tetrahydro-1H-indol-4-ol], the concentration for half-maximal inhibition (IC50) with VEGFA (786-O cells) (setting [2]) was found to be 30.7 nM; in experiment [1] (numeric values), 57.7 nM.

`N#Cc1cc(F)cc(-n2cc(C(F)(F)F)c3c2CCC(F)(F)C3O)c1` (stereo not drawn) [Example 12, 3-(5,5-difluoro-4-hydroxy-3-(trifluoromethyl)-4,5,6,7-tetrahydro-1H-indol-1-yl)-5-fluorobenzonitrile]: the IC50 in the experiment with VEGFA (786-O cells) (setting [2]) was 67.5 nM; in experiment [1] (class symbols), at most 500 nM.

As to `OC1c2c(C(F)(F)F)cn(-c3cccc(Cl)c3)c2CCC1(F)F` (stereo not drawn) [Example 15, l-(3-chlorophenyl)-5,5-difluoro-3-(trifluoromethyl)-4,5,6,7-tetrahydro-1H-indol-4-ol], the half-inhibitory concentration (IC50) in the experiment on VEGFA (786-O cells) (setting [2]) is 18.8 nM; in experiment [1] (class symbols) it was at most 500 nM.

`N#Cc1cccc(-n2cc(C(F)(F)F)c3c2CCC(F)(F)C3O)c1` (stereo not drawn) [Example 19, 3-(5,5-difluoro-4-hydroxy-3-(trifluoromethyl)-4,5,6,7-tetrahydro-1H-indol-1-yl)benzonitrile]: the concentration for half-maximal inhibition (IC50) (with VEGFA (786-O cells) (setting [3]); in experiment [1] (class symbols)) was at most 500 nM in each case.

For `OC1c2c(C(F)(F)F)cn(-c3cc(Cl)cc(Cl)c3)c2CCC1(F)F` (stereo not drawn) [Example 20, 1-(3,5-dichlorophenyl)-5,5-difluoro-3-(trifluoromethyl)-4,5,6,7-tetrahydro-1H-indol-4-ol], the 50% inhibitory concentration (IC50) (in the experiment with VEGFA (786-O cells) (setting [3]); in experiment [1] (class symbols)) was at most 500 nM in each case.

Turning to `OC1CCCc2c1c(C(F)(F)F)cn2-c1cc(F)cc(F)c1` (stereo not drawn) [Example 37, 1-(3,5-difluorophenyl)-3-(trifluoromethyl)-4,5,6,7-tetrahydro-1H-indol-4-ol], the IC50 (in the experiment on VEGFA (786-O cells) (setting [3]); in experiment [1] (class symbols)) was at most 500 nM in each case.

`O[C@H]1c2c(-c3cccs3)cn(-c3cc(F)cc(Cl)c3)c2CCC1(F)F` [Example 48, (S)-1-(3-chloro-5-fluorophenyl)-5,5-difluoro-3-(thiophen-2-yl)-4,5,6,7-tetrahydro-1H-indol-4-ol]: the IC50 is 45.6 nM in the experiment on VEGFA (786-O cells) (setting [2]) and at most 500 nM in experiment [1] (class symbols).

As for `O[C@H]1c2c(C(F)(F)F)cn(-c3cc(F)cc(F)c3)c2CCC1(F)F` [Example 64, (S)-1-(3,5-difluorophenyl)-5,5-difluoro-3-(trifluoromethyl)-4,5,6,7-tetrahydro-1H-indol-4-ol], the IC50 (in the experiment with VEGFA (786-O cells) (setting [3]); in experiment [1] (class symbols)) was at most 500 nM throughout.

Consider `N#Cc1cc(-c2cc(C(F)(F)F)c3n2CCC(F)(F)C3O)ccc1F` (stereo not drawn) [Example 69, 5-(7,7-difluoro-8-hydroxyl-1-(trifluoromethyl)-5,6,7,8-tetrahydroindolizin-3-yl)-2-fluorobenzonitrile], for which the values for the IC50 (with VEGFA (786-O cells) (setting [2]); in experiment [1] (numeric values)) were 44.2 nM and 67 nM, respectively.

As to `N#Cc1cc(-c2cc(C(F)(F)F)c3n2CCC(F)(F)[C@H]3O)ccc1F` [Example 70, (S)-5-(7,7-difluoro-8-hydroxyl-1-(trifluoromethyl)-5,6,7,8-tetrahydroindolizin-3-yl)-2-fluorobenzonitrile], the IC50 came out at 45.4 nM with VEGFA (786-O cells) (setting [2]) and 84.2 nM in experiment [1] (numeric values).

In the case of `N#Cc1cc(-c2cc(C(F)(F)F)c3n2CCC(F)C3O)ccc1F` (stereo not drawn) [Example 75, 2-fluoro-5-(7-fluoro-8-hydroxy-1-(trifluoromethyl)-5,6,7,8-tetrahydroindolizin-3-yl)benzonitrile], the IC50 (with VEGFA (786-O cells) (setting [3]); in experiment [1] (class symbols)) was at most 500 nM throughout.

`N#Cc1cc(-n2cc(C(F)(F)F)c3c2CCC(F)(F)[C@H]3O)ccc1F` [Example 95]: the IC50 amounted to 14.5 nM in the experiment with VEGFA (786-O cells) (24 hours incubation, numeric values) and 37.6 nM in experiment [1] (numeric values).

As for `OC1c2c(C(F)(F)F)c(F)n(-c3cc(F)cc(Cl)c3)c2CCC1(F)F` (stereo not drawn) [Example 106, 1-(3-chloro-5-fluorophenyl)-2,5,5-trifluoro-3-(trifluoromethyl)-4,5,6,7-tetrahydro-1H-indol-4-ol], the IC50 (in the experiment on VEGFA (786-O cells) (setting [3]); in experiment [1] (class symbols)) was at most 500 nM throughout.

With `O[C@H]1c2c(C(F)(F)F)cn(-c3cc(F)cc(Cl)c3)c2CCC1(F)F` [Example 116, (S)-1-(3-chloro-5-fluorophenyl)-5,5-difluoro-3-(trifluoromethyl)-4,5,6,7-tetrahydro-1H-indol-4-ol], the values for the IC50 (with VEGFA (786-O cells) (setting [2]); in experiment [1] (numeric values)) were 27.7 nM and 53.2 nM, respectively.

As to `OC1c2c(C(F)(F)F)cn(-c3ccc(F)c(Cl)c3)c2CCC1(F)F` (stereo not drawn) [Example 120, 1-(3-chloro-4-fluorophenyl)-5,5-difluoro-3-(trifluoromethyl)-4,5,6,7-tetrahydro-1H-indol-4-ol], the results for the IC50 (in the experiment on VEGFA (786-O cells) (setting [2]); in experiment [1] (numeric values)) were 38.9 nM and 75.7 nM, respectively.

As for `N#Cc1cc(-n2cc(C(F)(F)F)c3c2CCC(F)(F)C3O)ccc1F` (stereo not drawn) [Example 121], the IC50 with VEGFA (786-O cells) (setting [2]) came out at 31 nM; in experiment [1] (numeric values) it was 98.5 nM.

In the case of `N#Cc1ccc(-n2cc(C(F)(F)F)c3c2CCC(F)(F)C3O)cc1Cl` (stereo not drawn) [Example 124, 2-chloro-4-(5,5-difluoro-4-hydroxy-3-(trifluoromethyl)-4,5,6,7-tetrahydro-1H-indol-1-yl)benzonitrile], the IC50 is 8.5 nM with VEGFA (786-O cells) (Homo sapiens, 786-0, 24 hours incubation, numeric values) and at most 500 nM in experiment [1] (class symbols).

Take `N#Cc1ccc(-n2cc(C(F)(F)F)c3c2CCC(F)(F)C3O)cc1C#N` (stereo not drawn) [Example 125, 4-(5,5-difluoro-4-hydroxy-3-(trifluoromethyl)-4,5,6,7-tetrahydro-1H-indol-1-yl)phthalonitrile]: the concentration for half-maximal inhibition (IC50) was 34 nM in the experiment on VEGFA (786-O cells) (setting [2]) and at most 500 nM in experiment [1] (class symbols).

Take `N#Cc1cc(-n2cc(C(F)(F)F)c3c2CCC(F)[C@H]3O)ccc1F` (stereo partly drawn) [Example 131, 2-fluoro-5-((4S)-5-fluoro-4-hydroxy-3-(trifluoromethyl)-4,5,6,7-tetrahydro-1H-indol-1-yl)benzonitrile]: the IC50 (in the experiment on VEGFA (786-O cells) (setting [3]); in experiment [1] (class symbols)) was at most 500 nM throughout.

Regarding `OC1c2c(C(F)(F)F)cn(-c3cc(F)c(F)c(F)c3)c2CCC1(F)F` (stereo not drawn) [Example 148], the IC50 (with VEGFA (786-O cells) (setting [3]); in experiment [1] (class symbols)) was at most 500 nM in each case.

Regarding `CC1Cc2c(c(C(F)(F)F)cn2-c2ccc(F)c(C#N)c2)C(O)C1(F)F` (stereo not drawn) [Example 179, 5-(5,5-difluoro-4-hydroxy-6-methyl-3-(trifluoromethyl)-4,5,6,7-tetrahydro-1H-indol-1-yl)-2-fluorobenzonitrile], the IC50 with VEGFA (786-O cells) (setting [3]) is 500 to 1500 nM.

In the experiment on VEGFA (786-O cells) (setting [3]), `CC1Cc2c(c(C(F)(F)F)cn2-c2ccc(F)c(C#N)c2)[C@H](O)C1(F)F` (stereo partly drawn) [Example 180] returned a half-inhibitory concentration (IC50) of 500 to 1500 nM.

The compound `OC1c2c(C(F)(F)F)cn(/C=C/c3ccccc3)c2CCC1(F)F` (stereo not drawn) [Example 181, (E)-5,5-difluoro-1-styryl-3-(trifluoromethyl)-4,5,6,7-tetrahydro-1H-indol-4-ol] showed an IC50 with VEGFA (786-O cells) (setting [3]) of 1500 to 10000 nM.

On to `O=C1c2c(C(F)(F)F)cn(-c3ccc(F)c(C(F)F)c3)c2CCC1(F)F` [Example 190, 1-(3-(difluoromethyl)-4-fluorophenyl)-5,5-difluoro-3-(trifluoromethyl)-1,5,6,7-tetrahydro-4H-indol-4-one], for which, in the experiment on VEGFA (786-O cells) (setting [3]), the IC50 fell in the range of 500 to 1500 nM.

Turning to `CS(=O)(=O)c1cn(-c2cc(F)cc(C#N)c2)c2c1C(O)C(F)CC2` (stereo not drawn) [Example 193, 3-fluoro-5-(5-fluoro-4-hydroxy-3-(methylsulfonyl)-4,5,6,7-tetrahydro-1H-indol-1-yl)benzonitrile], the IC50 in the experiment on VEGFA (786-O cells) (setting [3]) was at most 500 nM.

`Fc1cc(Cl)cc(-n2cc(C(F)(F)F)c3c2CCc2cnoc2-3)c1` [Example 201, 6-(3-chloro-5-fluorophenyl)-8-(trifluoromethyl)-5,6-dihydro-4-H-isoxazolo[5,4-e]indole] displayed an IC50 in the experiment with VEGFA (786-O cells) (24 hours incubation, class symbols) above 1500 nM.

`Fc1cc(Cl)cc(-n2cc(C(F)(F)F)c3c2CCc2cn[nH]c2-3)c1` [Example 202, 6-(3-chloro-5-fluorophenyl)-8-(trifluoromethyl)-1,4,5,6-tetrahydropyrrolo-[2,3-g]indazole] displayed an IC50 with VEGFA (786-O cells) (setting [3]) above 1500 nM.
